From paper PMC8328489, “Automated Synthesis and Initial Evaluation of (4′-Amino-5′,8′-difluoro-1′H-spiro[piperidine-4,2′-quinazolin]-1-yl)(4-[^18F]fluorophenyl)methanone for PET/MR Imaging of Inducible Nitric Oxide Synthase” (Molecular Imaging, 2021)
Several values for one entry are separate records, joined by “and”; a condition that tells them apart may be missing. Identical values can stand only once.

Legend:
[1] = Log P measurement (1-octanol/phosphate buffer, UV); format: physicochemical; settings: 1-octanol / 0.02 M phosphate buffer; 1-octanol / phosphate buffer pH 7.4
Method: The partition coefficient of FBAT, determined between 1-octanol and 0.02 M phosphate buffer at pH 7.4, was measured by UV spectrophotometer (SPARK 10 M from Tecan) at wavelength 230 nm.

iNOS [2] = molecular target: T1, iNOS (Mus musculus, UniProt P29477); experiment: In vivo brain PET/MR imaging of LPS-induced iNOS expression (SUV, SUR, AUC) incl. aminoguanidine blocking; design: species or system C57BL/6 mice
T1 construct: tracer to detect iNOS expression in mice injected with lipopolysaccharide (LPS) to induce brain inflammation; from tissue; host or cells: brain of living C57BL/6 mice (LPS-induced); fixed brain sections for IHC
Method: For the imaging experiments, twelve C57BL/6 mice were injected i.p. with 0.9% NaCl, eighteen mice were injected i.p. with 0.1 mL of LPS in saline (5 mg/kg), and six mice were injected i.p. with aminoguanidine (Sigma-Aldrich) 30 min prior to 5 mg/kg LPS. In vivo imaging was performed 3 h or 24 h after injection of LPS; then, the mice were immediately humanely euthanized and the brains were removed for immunostaining.
Mice (n = 30) were anesthetized with 2% isoflurane (in oxygen) and injected with [^18F]FBAT (11.1 MBq; 0.3 mCi) via the tail vein. Dynamic PET images were obtained in fully three-dimensional list mode for 30 min using a small animal SuperArgus 2r PET system (SEDECAL, Madrid, Spain) or 7T PETMR Inline (Bruker, Rheinstetten, Germany; energy window, 350-650 keV; timing window, 6 ns). Images were acquired every 10 s for 12 images, 60 s for three images, 300 s for three images, or 600 s for […]. The anatomical structure of the brain was imaged using T2 MRI. The MRI sequences included 0.5 mm thick T2 Turbo RARE high-resolution images (TR = 3000 ms, TE, 46 ms, matrix, 512 × 256, average, 40, slice number, 30, field of view, 20 × 10 mm).
After determining the optimal imaging time point for [^18F]FBAT, we performed a blocking study using a selective iNOS inhibitor to assess the specificity of the tracer for iNOS. Separate 7T PET/MR studies with [^18F]FBAT were performed for mice (n = 6) administered a bolus of aminoguanidine (50 mg/kg i.p.) 30 min prior to administration of [^18F]FBAT. The time course of [^18F]FBAT radioactivity in the brain after administration of the iNOS inhibitor was assessed and compared to that of the mice in the LPS 3 h group.
Images were reconstructed by the Fourier rebinning algorithm and two-dimensional filtered back projection using a ramp filter with a cutoff at Nyquist. The regional radioactivity concentration (kBq/cc) of [^18F]FBAT was estimated from the mean pixel values within the region of interest (ROI) corresponding to MR images of various organs and regions of the brain. ROI for carotid artery, heart muscle, lung, liver, spleen, and kidney were defined and time activity curves (TACs) generated. TACs for whole brain, cortex, cerebellum, and brainstem were also determined as described above.
The concentration of radioactivity (kBq/cc, μCi/cc) was converted to standardized uptake value (SUV), and the mean and standard deviation (SD) of radiotracer accumulation values were calculated for different organs and regions of the brain. Data were analyzed with PMOD 4.0 software (PMOD Technologies Ltd., Zurich, Switzerland).

iNOS [3] = molecular target: T1, iNOS; experiment: Logan graphical analysis of dynamic PET (Vt); format: in vivo, C57BL/6 mice
Method: The dynamic PET imaging data were analyzed using Logan's model-independent graphical analysis to assess whether [^18F]FBAT PET/MR could be used to detect differences in expression of iNOS in brain regions (Cbra(t)). Cardiac blood TACs (Cref(t)) were used as the reference tissue. The slope of the linear portion of the Logan plot represents the total distribution (Vt). Then, the slope of the linear portion of the plot can be calculated using (1) ∫0tCreferencetdt/CreferenceT=DVR∫0tCbrain regiontdt/CreferenceT+C.

iNOS [4] = molecular target: T1, iNOS; experiment: Pharmacokinetic two-compartment modeling of dynamic PET; format: in vivo, C57BL/6 mice; settings: mouse whole brain
Text: A time activity curve (TAC) for a carotid artery region of interest was used to determine the dynamic PET image-derived [^18F]FBAT input function in uncorrected blood plasma. The corresponding TACs for [^18F]FBAT were derived by applying images from mice administered [^18F]FBAT to the image-derived plasma TAC. Model parameters were estimated for influx constant k1 (mL/cm^3/min^−1), efflux (k2) (min^−1) rate of radioligand diffusion between plasma and brain compartment. Exchange between compartments k3 (min^−1) and k4 (min^−1) was also estimated. The net influx constant, Ki (min^−1), parameter that describes the rate of binding to the iNOS was calculated as (2) KiFBAT=k1FBAT×k3FBAT/k2FBAT+k3FBAT.
Compartmental modeling, pharmacokinetic analyses, and generation of pixel-by-pixel parametric images were accomplished using PMOD 4.0 software (PMOD Technologies Ltd., Zurich, Switzerland).

[5] = LPS 5 mg/kg, 3 h, 30 min post i.v. tracer
[6] = LPS 5 mg/kg, 24 h, 30 min post i.v. tracer
[7] = LPS 3 h + aminoguanidine 50 mg/kg pretreatment
[8] = control mice, 30 min post i.v. tracer

NC1=NC2(CCN(C(=O)c3ccc([18F])cc3)CC2)Nc2c(F)ccc(F)c21 [[^18F]FBAT, (4′-amino-5′,8′-difluoro-1′H-spiro[piperidine-4,2′-quinazolin]-1-yl)(4-[^18F]fluorophenyl)methanone]
logP [1]: 1.4 | SUV, brainstem (iNOS [2]; [5]): 0.98 ± 0.09 SUV and 0.976 ± 0.244^∗ SUV | SUV, cerebellum (iNOS [2]; [5]): 0.60 ± 0.03 SUV and 0.600 ± 0.066^∗ SUV | SUV, cortex (iNOS [2]; [5]): 0.90 ± 0.07 SUV and 0.904 ± 0.251^∗ SUV | SUV, whole brain (iNOS [2]; [5]): 1.43 ± 0.11 SUV and 1.428 ± 0.410^∗∗∗ SUV | SUV, brainstem (iNOS [2]; [6]): 0.67 ± 0.07 SUV and 0.671 ± 0.148 SUV | SUV, cerebellum (iNOS [2]; [6]): 0.54 ± 0.02 SUV and 0.542 ± 0.052 SUV | SUV, cortex (iNOS [2]; [6]): 0.62 ± 0.02 SUV and 0.620 ± 0.041 SUV | SUV, whole brain (iNOS [2]; [6]): 0.90 ± 0.13 SUV and 0.900 ± 0.270 SUV | SUV, brainstem (iNOS [2]; [7]): 0.35 ± 0.10 SUV and 0.350 ± 0.055 SUV | SUV, cerebellum (iNOS [2]; [7]): 0.31 ± 0.09 SUV and 0.310 ± 0.037 SUV | SUV, cortex (iNOS [2]; [7]): 0.32 ± 0.09 SUV and 0.320 ± 0.063 SUV | SUV, whole brain (iNOS [2]; [7]): 0.31 ± 0.08 SUV and 0.312 ± 0.055 SUV | SUR (SUVLPS to SUVcon), brainstem (iNOS [2]; LPS 24 h): 1.273 ± 0.163 | SUR (SUVLPS to SUVcon), cerebellum (iNOS [2]; LPS 24 h): 1.233 ± 0.112 | SUR (SUVLPS to SUVcon), cortex (iNOS [2]; LPS 24 h): 0.970 ± 0.303 | SUR (SUVLPS to SUVcon), whole brain (iNOS [2]; LPS 24 h): 1.351 ± 0.451 | SUR (SUV ratio to control), brainstem (iNOS [2]; control mice): 1.000 | SUR (SUV ratio to control), cerebellum (iNOS [2]; control mice): 1.000 | SUR (SUV ratio to control), cortex (iNOS [2]; control mice): 1.000 | SUR (SUV ratio to control), whole brain (iNOS [2]; control mice): 1.000 | SUV, brainstem (iNOS [2]; [8]): 0.540 ± 0.153 SUV | SUV, cerebellum (iNOS [2]; [8]): 0.448 ± 0.115 SUV | SUV, cortex (iNOS [2]; [8]): 0.604 ± 0.150 SUV | SUV, whole brain (iNOS [2]; [8]): 0.709 ± 0.200 SUV | AUC0-30min, 3 h LPS group vs control group (iNOS [2]; whole brain, average): 1.9 ± 0.21 fold | volume distribution Vt, brainstem (iNOS [3]; LPS 3 h): 0.435 ± 0.040^∗ mL/cm^3 | volume distribution Vt, cerebellum (iNOS [3]; LPS 3 h): 0.385 ± 0.016^∗∗ mL/cm^3 | volume distribution Vt, cortex (iNOS [3]; LPS 3 h): 0.391 ± 0.020^∗ mL/cm^3 | volume distribution Vt, whole brain (iNOS [3]; LPS 3 h): 0.404 ± 0.003 mL/cm^3 | volume distribution Vt, brainstem (iNOS [3]; LPS 3 h + AMG): 0.223 ± 0.036 mL/cm^3 | volume distribution Vt, cerebellum (iNOS [3]; LPS 3 h + AMG): 0.250 ± 0.055 mL/cm^3 | volume distribution Vt, cortex (iNOS [3]; LPS 3 h + AMG): 0.222 ± 0.024 mL/cm^3 | volume distribution Vt, whole brain (iNOS [3]; LPS 3 h + AMG): 0.203 ± 0.032 mL/cm^3 | volume distribution Vt, brainstem (iNOS [3]; LPS 24 h): 0.315 ± 0.065 mL/cm^3 | volume distribution Vt, cerebellum (iNOS [3]; LPS 24 h): 0.288 ± 0.090 mL/cm^3 | volume distribution Vt, cortex (iNOS [3]; LPS 24 h): 0.264 ± 0.036^∗ mL/cm^3 | volume distribution Vt, whole brain (iNOS [3]; LPS 24 h): 0.274 ± 0.068 mL/cm^3 | average volume distribution Vt in brain regions (iNOS [3]; LPS group (implied), blood as reference tissue): 0.40 ± 0.02 mL/cm^3 | Vt in the brain regions (iNOS [3]; control animals): 0.29 ± 0.05 mL/cm^3 | volume distribution Vt, brainstem (iNOS [3]; control mice): 0.295 ± 0.026 mL/cm^3 | volume distribution Vt, cerebellum (iNOS [3]; control mice): 0.227 ± 0.001 mL/cm^3 | volume distribution Vt, cortex (iNOS [3]; control mice): 0.278 ± 0.006 mL/cm^3 | volume distribution Vt, whole brain (iNOS [3]; control mice): 0.346 ± 0.012 mL/cm^3 | Vt, 3 h LPS group vs control group (iNOS [3]; whole brain, average): 1.4 ± 0.22 fold | k1 (influx rate constant) (iNOS [4]; LPS 5 mg/kg): 0.633 ± 0.002 min⁻¹ | k2 (efflux rate constant) (iNOS [4]; LPS 5 mg/kg): 0.608 ± 0.054 min⁻¹ | k3 (iNOS [4]; LPS 5 mg/kg): 0.006 ± 0.003^∗ min^−1 | k1 (influx rate constant) (iNOS [4]; control): 0.957 ± 0.250 min⁻¹ | k2 (efflux rate constant) (iNOS [4]; control): 0.777 ± 0.101 min⁻¹ | k3 (iNOS [4]; control): 2.86E − 05 ± 4.48E − 05 min^−1
